Data published in patent US5958944A, “Benzamide compounds and pharmaceutical use thereof” (Yoshitomi Pharmaceutical Industries, Ltd., priority 1994, dated 1999).

How the values were obtained:
[1] = test system: spontaneously hypertensive rats (SHR); test: Pharmacological Experiment 1: hypotensive effects, systolic blood pressure at one hour after oral administration, tail cuff method; format: in vivo, rat; settings: SHR P.O., 30 mg/kg
Method: Pharmacological Experiment 1: hypotensive effects
To spontaneously hypertensive rats (SHR) weighing 350-450 g (3-5 per group) was orally administered a test compound (30 mg/kg) dissolved in 0.5% hydroxypropylmethylcellulose, and systolic blood pressure at one hour after administration was determined by tail cuff method to examine hypotensive effects.

thoracic aorta = test: Pharmacological Experiment 2: vasodilating effects, relaxation of phenylephrine-contracted thoracic aorta rings; format: cell-based; settings: Oryctolagus cuniculus; rabbit thoracic aorta rings contracted with phenylephrine (10^-6 M); contraction by phenylephrine as 100%; read-out: vasodilating action (concentration necessary for 50% relaxation, IC50)
Method: Pharmacological Experiment 2: vasodilating effects
Male rabbits (body weight 1.9-3.0 kg) were anesthetized with sodium pentobarbital and killed by exsanguinity. The thoracic aorta was removed and about 2 mm wide ring specimens were prepared. The specimens were hung in a 40 ml Magnus bath filled with Krebs-Henseleit solution (NaCl 117 mM; KCl 4.7 mM; CaCl2 2.5 mM; MgSO4 1.2 mM; NaHCO3 24.8 mM; KH2 PO4 1.2 mM; glucose 11.0 mM) at 37° C. at a load of 2 g. The Magnus bath was constantly aerated with a mixed gas (95% oxygen+5% carbon dioxide). The tension of the specimens was measured by isometric transducer (TB-611T, Nihon Koden). The specimens were contracted with phenylephrine (10^-6 M) and when the contraction became constant, the compound was cumulatively added to observe relaxing response. The relaxing response by the compound was calculated relative to contraction by phenylephrine as 100% as the concentration necessary for 50% relaxation (IC50, μM).

tracheal specimen = test: Pharmacological Experiment 3: effect on contraction caused by acetylcholine in extracted tracheal specimen; format: cell-based; settings: Cavia porcellus; guinea pig trachea contracted with acetylcholine (10^-6 M); relative to maximum response by papaverine (10^-4 M) as 100%; read-out: bronchodilative action (IC50)
Method: Pharmacological Experiment 3: Effect on contraction caused by acetylcholine in tracheal specimen extracted from guinea pig
Male Hartley guinea pigs (body weight 260-390 g) were anesthetized by intraperitoneal administration of pentobarbital sodium (100 mg/kg) and killed by exsanguinity. The trachea was removed and ventral cartilage was cut open and ligament was cut in 3 mm width to prepare specimens. The specimens were hung in a 40 ml Magnus bath filled with Krebs-Henseleit solution (NaCl 117 mM; KCl 4.7 mM; CaCl2 2.5 mM; MgSO4 1.2 mM; NaHCO3 24.8 mM; KH2 PO4 1.2 mM; glucose 11.0 mM) at 37° C. at a load of 1 g. The Magnus bath was constantly aerated with a mixed gas (95% oxygen+5% carbon dioxide). The tension of the specimens was measured by isometric transducer (TB-611T, Nihon Koden) and recorded on a recorder (Ti-102, Tokai Irika). The specimens were contracted with acetylcholine (10^-6 M) and when the contraction became constant, the compound was cumulatively added to observe relaxing response. The relaxing response by the compound was calculated relative to maximum response by papaverine (10^-4 M) as 100% as the concentration necessary for 50% relaxation (IC50, μM).

Row | Structure (SMILES) | hypotensive effect [1] [mmHg] | IC50 (thoracic aorta) [nM] | IC50 (tracheal specimen) [nM]
1 | C[C@@H](N)c1ccc(C(=O)Nc2ccncc2)cc1 [Example 1, (R)-N-(4-pyridyl)-4-(1-aminoethyl)benzamide] | -116 |  | 
2 | C[C@@H](N)c1ccc(C(=O)Nc2ccnc3[nH]ccc23)cc1 [Example 9, (R)-(+)-N-(1H-pyrrolo[2,3-b]pyridin-4-yl)-4-(1-aminoethyl)benzamide] | -131 | 50 | 50
3 | C[C@@H](N)c1ccc(C(=O)Nc2ccnc3[nH]ccc23)cc1N=[N+]=[N-] [Example 150, (R)-(-)-N-(1H-pyrrolo[2,3-b]pyridin-4-yl)-4-(1-aminoethyl)-3-azidobenzamide] |  | 30 | 
